From patent US11415579B2, “Assay for measuring a rate of reaction between a target and a ligand candidate” (Imperial College Innovations Ltd., priority 2016, dated 2022)

What was measured:
Cdk2(T182C) (C177A) = target: T1, Cdk2(T182C) (C177A) (Homo sapiens, UniProt P24941, C177A/T182C); assay: Kinetic thiol consumption assay with Cdk2 mutant T182C; assay type: binding; parameters: key to Rate enhancement, Cdk2 T182C: rate constant with Cdk2 ÷ rate constant with model thiol (fold); settings: additional mutation C177A; for Rate constant with Cdk2 T182C: Protein: Cdk2, cysteine position T182C, in h^-1
T1 construct: poly-histidine; made in house; host or cells: E. coli
Method: (§1) To wells containing 150 μL thiol (Cdk2 or model thiol) (5 μM) in degassed phosphate buffer (pH 8) was added immobilized TCEP beads (2% v/v).
(§2) After incubation of the fluorescence plates for 1 hour at room temperature, fluorescence measurements (excitation/emission of 380/470 nm) were taken on a PerkinElmer EnVision multilabel plate reader and processed with EnVision Workstation version 1.12.
(§3) Fluorescence measurements were normalized against a DMSO/thiol only control and plotted against time.
(§4) Rate constants were calculated using GraphPad software Prism version 6 by fitting a first order exponential decay to the data. The rate constant for each acrylamide with Cdk2 was divided by the rate constant for that fragment with the model thiol to provide the rate enhancement for each ligand candidate.
(§5) A further set of set of additional Cdk2 mutants were screened, all containing the C177A mutation and therefore with only one cysteine on the surface: • F80C (without the K278C mutation) • H71C • S276C • N272 • T182C • R122C • S181C
(§6) Mutations were introduced by site-directed mutagenesis and the resulting cDNA was cloned into the pRSETA bacterial expression vector to generate a poly-histidine tagged Cdk2 fusion that was purified from E. coli using standard techniques.

Cdk2(S276C) (C177A) = target: T2, Cdk2(S276C) (C177A) (Homo sapiens, UniProt P24941, C177A/S276C); assay: Kinetic thiol consumption assay with Cdk2 mutant S276C; assay type: binding; parameters: key to Rate enhancement, Cdk2 S276C: rate constant with Cdk2 ÷ rate constant with model thiol (fold); settings: additional mutation C177A; for Rate constant with Cdk2 S276C: Protein: Cdk2, cysteine position S276C, in h^-1
T2 construct: poly-histidine; made in house; host or cells: E. coli
Method: as §1, §2, §3, §4, §5, §6

Cdk2(H71C) (C177A) = target: T3, Cdk2(H71C) (C177A) (Homo sapiens, UniProt P24941, C177A/H71C); assay: Kinetic thiol consumption assay with Cdk2 mutant H71C; assay type: binding; parameters: key to Rate enhancement, Cdk2 H71C: rate constant with Cdk2 ÷ rate constant with model thiol (fold); settings: additional mutation C177A; for Rate constant with Cdk2 H71C: Protein: Cdk2, cysteine position H71C, in h^-1
T3 construct: poly-histidine; made in house; host or cells: E. coli
Method: as §1, §2, §3, §4, §5, §6

[1] = target: T4, human cyclin-dependent kinase 2 (Cdk2) (Homo sapiens, UniProt P24941); assay: Kinetic thiol consumption assay with wild type Cdk2 (C177); assay type: binding; parameters: key to Rate enhancement, Cdk2 WT: k(Cdk2) divided by k(model thiol); Rate constant with Cdk2 (k(Cdk2)): unit not given here; settings: for Rate enhancement, Cdk2 WT: no additional mutations; for Rate constant with Cdk2 WT: Protein: Cdk2, cysteine position WT, in h^-1
T4 construct: poly-histidine; made in house; host or cells: E. coli
Method: (§7) A library of 120 acrylamides was screened against a) human cyclin-dependent kinase 2 (Cdk2, which contains one surface exposed cysteine residue—C177), prepared by cloning cDNA into the pRSETA bacterial expression vector to generate a poly-histidine tagged Cdk2 fusion that was purified from E. coli using standard techniques, and b) a model thiol (specific details are given below). The structures of these 120 acrylamides are set out in Table 1, above.
as §1, §2, §3, §4

Cdk2(R122C) (C177A) = target: T5, Cdk2(R122C) (C177A) (Homo sapiens, UniProt P24941, C177A/R122C); assay: Kinetic thiol consumption assay with Cdk2 mutant R122C; assay type: binding; parameters: key to Rate enhancement, Cdk2 R122C: rate constant with Cdk2 ÷ rate constant with model thiol (fold); settings: additional mutation C177A; for Rate constant with Cdk2 R122C: Protein: Cdk2, cysteine position R122C, in h-1
T5 construct: poly-histidine; made in house; host or cells: E. coli
Method: as §1, §2, §3, §4, §5, §6

Cdk2(C177A, F80C) = target: T6, Cdk2(C177A, F80C) (Homo sapiens, UniProt P24941, C177A/F80C); assay: Kinetic thiol consumption assay with Cdk2 mutant F80C, incl. kobs versus concentration (Kd, k2); assay type: binding; parameters: key to Rate enhancement, Cdk2 F80C: Cdk2 rate constant divided by model-thiol rate constant; settings: additional mutation C177A; for Rate constant with Cdk2 F80C: Protein: Cdk2, cysteine position F80C, in h^-1
T6 construct: poly-histidine; made in house; host or cells: E. coli
Method: Therefore the assay can be used to calculate both k2 and Kd by experimentally determining kobs at a suitable range of ligand candidate concentrations. Typically Kd and k2 would then be determined by fitting a hyperbolic curve to a plot of kobs against ligand candidate concentration (FIG. 9).
as §1, §2, §3, §4, §5, §6
Rate constants were calculated as described in the methodology section of Examples 1 and 2.

Cdk2(N272C) (C177A) = target: T7, Cdk2(N272C) (C177A) (Homo sapiens, UniProt P24941, C177A/N272C); assay: Kinetic thiol consumption assay with Cdk2 mutant N272C; assay type: binding; parameters: key to Rate enhancement, Cdk2 N272: rate constant with Cdk2 ÷ rate constant with model thiol (fold); settings: for Rate enhancement, Cdk2 N272: Cdk2 N272, additional mutation C177A; for Rate constant with Cdk2 N272C: Protein: Cdk2, cysteine position N272C, additional mutation C177A, in h^-1
T7 construct: poly-histidine; made in house; host or cells: E. coli
Method: as §1, §2, §3, §4, §5, §6

[2] = Kinetic thiol consumption assay with model thiol glutathione; assay type: physicochemical; parameters: Rate constant with glutathione (k(GSH)): unit not given here; settings: for Rate constant with Glutathione: Protein: Glutathione, cysteine position NA, in h-1
Method: as §7, §1, §2, §3, §4
The model thiol in Example 1 is glutathione (GSH). Hits were defined as fragments where kCdk2/kGSH>5.8 (empirically determined as 3 standard deviations over the mean).

Cdk2(S181C) (C177A) = target: T8, Cdk2(S181C) (C177A) (Homo sapiens, UniProt P24941, C177A/S181C); assay: Kinetic thiol consumption assay with Cdk2 mutant S181C; assay type: binding; parameters: key to Rate enhancement, Cdk2 S181C: rate constant with Cdk2 ÷ rate constant with model thiol (fold); settings: additional mutation C177A; for Rate constant with Cdk2 S181C: Protein: Cdk2, cysteine position S181C, in h^-1
T8 construct: poly-histidine; made in house; host or cells: E. coli
Method: as §1, §2, §3, §4, §5, §6

[3] = 500 μM ligand, 5 μM thiol, phosphate buffer pH 8

SMILES	Rate enhancement, Cdk2 T182C (Cdk2(T182C) (C177A))	Rate constant with Cdk2 T182C (Cdk2(T182C) (C177A))	Rate enhancement, Cdk2 S276C (Cdk2(S276C) (C177A))	Rate constant with Cdk2 S276C (Cdk2(S276C) (C177A))	Rate enhancement, Cdk2 H71C (Cdk2(H71C) (C177A))	Rate constant with Cdk2 H71C (Cdk2(H71C) (C177A))	Rate enhancement, Cdk2 WT [1]	Rate constant with Cdk2 WT [1]	Rate enhancement, Cdk2 R122C (Cdk2(R122C) (C177A))	Rate constant with Cdk2 R122C (Cdk2(R122C) (C177A))	Rate enhancement, Cdk2 F80C (Cdk2(C177A, F80C))	Rate enhancement, Cdk2 N272 (Cdk2(N272C) (C177A))	Rate constant with Cdk2 N272C (Cdk2(N272C) (C177A))	Rate constant with Glutathione [2]	Rate enhancement, Cdk2 S181C (Cdk2(S181C) (C177A))	Rate constant with Cdk2 S181C (Cdk2(S181C) (C177A))	Rate constant with Cdk2 (k(Cdk2)) [1, 3]	k(Cdk2)/k(GSH) rate enhancement ([1]; model thiol glutathione)	Rate constant with glutathione (k(GSH)) [2, 3]	Rate constant with Cdk2 F80C (Cdk2(C177A, F80C))
CC1CN(C(=O)CCl)CC(C)O1 (stereo not drawn) [EN012]	0.3161	0.08536	0.5904	0.1594	0.03607	0.009738	1.086	0.2933	0.02811	0.00759	0	0.1055	0.02849	0.27	0.067	0.01809	–	–	–	–
C=CC(=O)N(C)C1C2CCOC2C1(C)C (stereo not drawn) [CA-182]	6.867	0.02065	0.6169	0.001855	0.6721	0.002021	1.268	0.003813	1.368	0.004115	0	1.56	0.004691	0.003007	3.018	0.009074	0.00381	1.254	0.00304	–
O=C(c1ccccc1)[C@@H]1O[C@H]1c1ccccc1 [EN006]	34.33	0.07618	74.76	0.1659	12.95	0.02873	1.315	0.002918	0.411	0.000912	7.7693E−12	5.777	0.01282	0.002219	4.709	0.01045	–	–	–	1.724E−14
C=CC(=O)N(c1cccc2ncccc12)C1CCC1 [CA-032/228]	14.8	0.2422	1.851	0.03029	15.36	0.2513	1.405	0.02299	1.534	0.02509	2.232	3.007	0.04919	0.01636	1.043	0.01707	–	–	–	0.03651
